In a melting point compilation (Tetko et al.; mined from patent text by program, amines drawn as free bases though some values may be those of a salt) one finds melting point data, which are given here for 64 molecules.

The structures appear in SMILES notation.

Usually melting point stands for the temperature, or range, at which the solid turns liquid. `CC(C)c1[nH]n(-c2c(Cl)cc(Cl)cc2Cl)c2nc(Cc3ccc(NC(=O)OCCCN(C)C)cc3)nc(=O)c1-2` displayed a melting point of 200 to 202 °C.

`CNc1nc(-c2cc(F)cc(F)c2)nc2nc(-c3ccco3)nn12` gave a melting point of 231 to 234 °C.

In turn, `Cc1[nH]cnc1CNC(=N)NC#N` returned a melting point of 216 to 221 °C.

For `Clc1nc(-n2ccnc2)c2ccccc2c1-c1ccccc1`, the melting point fell in the range of 165 to 168 °C.

Regarding `Fc1ccc(N2CCN(CCCOc3ccc(-n4cccn4)cc3)CC2)cc1`, the melting point lay in the range of 151 to 153 °C.

For the molecule `COc1ccccc1Oc1c(Cl)nc(-c2ncccn2)nc1OCCO`, the melting point was in the range of 133 to 137 °C.

As to `CC(=O)Nc1ccc2c3c1c(=O)c(C(=O)O)cn3C1CCCCC21` (centres undefined), the melting point fell in the range of 187 to 190 °C.

The molecule `CCC1(C)CC(=O)C(C(=O)Nc2ccc(Cl)c(Cl)c2)C(=O)C1` (centres undefined) had a melting point of 74 to 75 °C.

In the case of `COc1ccc(CNc2nc(Cl)ncc2C(=O)c2cc(OC)c(OC)c(OC)c2)cc1Cl`, the melting point worked out at 165 °C.

`O=C(O)COc1c(-c2ccccc2)cc([N+](=O)[O-])cc1-c1ccccc1` registered a melting point of 154 to 156 °C.

`N#CC1(c2cccc3ccccc23)CCC(=O)CC1` showed a melting point of 166 to 167 °C.

On to `CCOC(CC(=O)Nc1cc(CCNC(=O)C(F)(F)F)ccc1OC)OCC`, for which the melting point fell in the range of 79 to 80 °C.

`O=C1CCC(N2Cc3c(OCc4ccc(CN5CC6CCC(C5)O6)cc4)cccc3C2=O)C(=O)N1` (centres undefined) showed a melting point of 228 to 230 °C.

In turn, `CC(C)(C)NC(=O)[C@@H]1CCCN1C(=O)[C@@H](O)[C@H](Cc1ccccc1)N(Cc1ccccc1)Cc1ccccc1` showed a melting point of 122 to 123 °C.

`COc1ccc(CNC(=O)c2ccc(Cl)cc2OCC(=O)O)cc1` came in with a melting point of 178 to 179 °C.

In the case of `N#Cc1ccc([C@@H]2[C@@H]3C(=O)N(Cc4ccc5c(c4)OCO5)C(=O)[C@@H]3[C@H]3CCCN32)cc1` (racemic), the melting point is 61 to 63 °C.

The molecule `O=c1nc(-c2ccccn2)sc2ccc(OCCCCCCO)cc12` displayed a melting point of 136 to 137 °C.

Molecule `O=c1[nH]c(-c2c[nH]c3ccccc23)nc2ccc(N3CCCCC3)cc12` returned a melting point of more than 300 °C.

`Clc1ccc(-c2cn3c(n2)CCCC3)c(Cl)c1` had a melting point of 134 to 136 °C.

As for `CC(C)CN(C[C@H](O)COc1cccc2[nH]c3ccccc3c12)c1ccc(OC(C)(C)C(N)=O)cc1`, the melting point was 84 to 86 °C.

Consider `Cn1nc(-c2ccccc2)c(S(=O)(=O)c2ccccc2)c1-c1ccccc1`, for which the melting point fell in the range of 135 to 141 °C.

`O=C(Cc1ccncc1)NC(Cc1c[nH]c2ccccc12)C(O)CCc1cc(C(F)(F)F)cc(C(F)(F)F)c1` (centres undefined) registered a melting point of 213 to 214 °C.

With `Cc1cc(Cl)c2ccc(Cl)cc2c1CCC=O`, the melting point lay in the range of 104 to 106 °C.

In turn, `CN(C)CCOc1ccc(N2C(=O)C=C3CCCCC32)cc1` (centres undefined) displayed a melting point of 90 °C.

In turn, `CCCCCCCCCCCCNC(=S)C1(c2ccccn2)CCCS1` (centres undefined) showed a melting point of 60 °C.

`CC(C)C(=O)N1C2=NC(C)(C)N(C)C(=O)N2c2ccccc21` returned a melting point of 99 to 102 °C.

The molecule `CC(=O)Oc1c(C)cc2c(c1C)C(C)CN2C(C)=O` (centres undefined) had a melting point of 128 to 130 °C.

In turn, `O=C(N[C@H]1CC[C@H](CCN2CCN(c3nccc4c3OCC4)CC2)CC1)c1ccc(N2CCOCC2)cc1` returned a melting point of 242 °C.

As for `O=C1C2C3COC2(C3)c2cccnc2N1c1ccccc1` (centres undefined), the melting point is 198 to 200 °C.

Take `Cc1cccc(C(=O)Nc2c[nH]nc2C(=O)NCCOC(C)C)n1`: the melting point is 150 to 151 °C.

`COCc1c(C(=O)OC)c2cc(O)ccc2n1C` registered a melting point of 168 to 170 °C.

Turning to `O=C(O)C(Oc1ccc(OCc2ccccc2)cc1)c1ccc(OCCCOc2ccc(Cl)cc2)cc1` (centres undefined), the melting point fell in the range of 105 to 109 °C.

In the case of `O=NN(CCCl)C(=O)NC1OC(CO)C(O)C1O` (centres undefined), the melting point is 69 to 71 °C.

In the case of `C1=C(c2cc3ccccc3s2)CCC2(C1)CCNCC2`, the melting point is 107 to 110 °C.

`O=C1Nc2cccc(Cl)c2C(=O)N2CC=C[C@@H]12` registered a melting point of 250 °C.

With `COc1ccc2c(c1)C(=O)c1c-2n(CCCBr)c(=O)c2cc([N+](=O)[O-])ccc12`, the melting point was 282 to 284 °C.

`CCOC(=O)CCc1c(-c2cc(Cl)ccc2OC)c2cc(C(F)(F)F)ccc2[nH]c1=O` registered a melting point of 193 to 195 °C.

For `C=C(c1cc(F)ccc1OCCCC)n1ccnc1`, the melting point was 107 to 109 °C.

In turn, `O=C(O)CNS(=O)(=O)c1ccc(N2CCN(c3ccccc3)CC2)cc1` yielded a melting point of 120 to 124 °C.

As for `COc1ccc(-c2ccc(C(=O)NCCOc3ccc(CC(Oc4ccc(C(C)C)cc4)C(=O)O)cc3)cc2)cc1` (centres undefined), the melting point lay in the range of 159 to 160 °C.

For the molecule `c1ccc(OCCSCc2nnc(-c3ccc(OCCCCN4CCCCC4)cc3)o2)cc1`, the melting point was 57 to 62 °C.

In turn, `Cc1c(C)c2c(c(C)c1NC(=O)CC(C)(C)C)C(c1ccc(C(C)CCO)cc1)CO2` (centres undefined) returned a melting point of 145 to 147 °C.

Take `Cc1noc(-c2cn(-c3cccc(Br)c3)cn2)n1`: the melting point lay in the range of 200 to 202 °C.

For `Cc1noc(NS(=O)(=O)c2ccccc2-c2ccc(-c3ncco3)cc2CN(C)C(=O)c2ccccc2F)c1C`, the melting point is 127 to 137 °C.

Molecule `N=C(NO)C1C=Cc2ccccc2N1C(=O)c1ccccc1` (centres undefined) came in with a melting point of 176 to 178 °C.

The molecule `COC(=O)C1Cc2c([nH]c3ccccc23)CN1C(=O)c1ccc(Cl)cc1` (centres undefined) showed a melting point of 243 to 244 °C.

For the molecule `Cc1cncc(CC(=O)c2ccccc2)c1`, the melting point was 53 to 54 °C.

The molecule `CCOC(=O)CCCn1c(=O)[nH]c2ccccc21` came in with a melting point of 88 °C.

In the case of `COc1ccc2cc(CC(=O)O)ccc2c1`, the melting point was in the range of 173 to 174 °C.

Molecule `CN(C)C=NC(=N[N+](=O)[O-])N(C)Cc1ccc(Cl)nc1` came in with a melting point of 85 to 89 °C.

As to `N#CCc1ccccc1Sc1ccc(Cl)c(C(F)(F)F)c1`, the melting point fell in the range of 69 to 70 °C.

With `COC(=O)C1=C(C)NC(=O)NC1c1cccc(N)c1` (centres undefined), the melting point fell in the range of 222 to 234 °C.

In turn, `COc1ccc(-c2cc3ccc(C(=O)O)cc3o2)cc1C(C)(C)C` came in with a melting point of 235 °C.

Consider `COC(=O)c1cccc([N+](=O)[O-])c1I`, for which the melting point was 64 to 64.5 °C.

In the case of `C[C@H](O)C(=O)Nc1c(C(=O)c2ccccc2)[nH]c2cc(Cl)ccc12`, the melting point is 185 to 190 °C.

Molecule `CN(CCN1CCOCC1)c1noc2cc(O)ccc12` showed a melting point of 91 to 92 °C.

With `CON(C)C(=O)NN(C(=O)Cl)c1cccc2c1OC(C)C2` (centres undefined), the melting point was in the range of 91 to 93 °C.

As to `O=C(CC(O)=S)c1ccccc1`, the melting point lay within 103 to 105 °C.

`CC(C)OC(=O)CC1SCN(c2ccc(Cl)c(Cl)c2)C1=O` (centres undefined) had a melting point of 54 to 56 °C.

With `CCOC(=O)c1cc2c(nc1C)C(=Cc1ccco1)CCC2`, the melting point is 119 to 120 °C.

On to `Cc1c(O)c2c(c(C)c1NC(=O)CC(C)(C)C)[C@@H](c1ccc(C(C)C)cc1)CO2`, for which the melting point lay in the range of 181 to 182 °C.

`CCN(CC)CCOc1ccc(Nc2ncc3c(n2)N(C2CCCC2)C(=O)NC3)cc1C` showed a melting point of 175 to 177 °C.

In the case of `CC(C)CCn1cc(C(=O)c2ccccc2)c(=O)c2cn(C)nc21`, the melting point lay in the range of 231 to 233 °C.

Molecule `O=c1cc(-c2ccncc2)nc2n1CCC(C(F)(F)F)N2` (centres undefined) gave a melting point of 302 to 304 °C.
